Measurements as given in patent publication US9676727B2, “Myxovirus therapeutics, compounds, and uses related thereto” (priority 2011, dated 2017).
In brackets after ≈: the same amount, converted by molar mass. Each block holds one molecule with its values, some of them ahead of it.

How the values were obtained:
[1] = tested on: MV-Alaska; assay: Virus yield (virus titer) reduction assay; assay type: cell-based, Measles virus (MeV); details: Measles morbillivirus
[2] = Pharmacokinetic study in rat, plasma concentration after dosing; assay type: in vivo, Sprague-Dawley rat; details: for AUC (0-t) / AUC (0-∞) / Cmax / Tmax / T½: suspension in PEG200/0.5% methylcellulose (10/90)
Protocol: Preliminary pharmacokinetic (PK) studies in the Sprague-Dawley rat compared AS-136a with compounds 2k and 2o following p.o. dosing by oral gavage at 10 mg/kg and 50 mg/kg in a PEG200/0.5% methylcellulose (10/90) vehicle (n=4/group).
The data from the preliminary pharmacokinetic studies using the 6-hour time point are reported for comparison purposes. […] On the basis of its excellent in vitro potency, good solubility and pharmacokinetic profile, compound 2o was chosen for further bioavailability evaluation.

[3] = Aqueous solubility by nephelometry; assay type: physicochemical; details: buffer pH=7.4; for Aqueous solubility (μg/ml) Test: Nephelometer
[4] = tested on: Vero cells; assay: MTT cytotoxicity; assay type: cell-based; details: averages of at least three experiments; highest concentration assessed 75 μM
[5] = tested on: MV-Alaska; assay: Viral CPE-reduction assay (MeV-Alaska in Vero-SLAM cells, crystal violet); assay type: cell-based, Measles virus (MeV)
Protocol: Methods for evaluating viral activity are provided for in Yoon et al., J Biomol Screen., 2008, 13(7): 591-608 and Krumm et al., PLoS ONE, 2011, 6(5), e20069, both hereby incorporated by reference in their entirety. In certain instances, Vero-SLAM cells were infected with MeV-Alaska in four replicates per compound concentration in a 96-well plate format at an MOI of 0.4 pfu/cell in the presence of the inhibitor. At 96 hours post-infection, cell monolayers were subjected to crystal violet staining (0.1% crystal violet in 20% ethanol), and the absorbance of dried plates at 560 nm determined. Virus-induced cytopathicity was then calculated according to the formula [% rel. CPE=100-(experimental-minimum)/(maximum-minimum)*100], with minimum referring to infected, vehicle-treated wells and maximum to mock-infected wells.

[6] = averages of two to four experiments ± SEM, highest concentration assessed 1 μM, read-out: EC50 (μM) (MV-Alaska) virus titer reduction
[7] = Measles morbillivirus, Table 1, piperidine series, read-out: EC50 (μM) (MV-Alaska) (CPE inhib.)
[8] = Measles morbillivirus, Table 3, averages of four experiments, concentration range 2.3-75 μM, read-out: EC50 (μM) (MV-Alaska) CPE inhibition
[9] = Measles morbillivirus, read-out: EC50 (μM) (MV-Alaska) (CPE inhib.)
[10] = Table 1, piperidine series, read-out: EC50 (μM) (MV-Alaska) (CPE inhib.)
[11] = Measles morbillivirus, Table 2, phenyl and acyclic series, read-out: EC50 (μM) (MV-Alaska) (CPE inhibition)

EC50 [5, 10]: 8.3 µM
Structure (SMILES): Cn1nc(C(F)(F)F)cc1C(=O)Nc1ccc(S(=O)(=O)N2CCCCC2CCO)cc1 (stereo not drawn) [Compound 2l, N-(4-((2-(2-hydroxyethyl)piperidin-1-yl)sulfonyl)phenyl)-1-methyl-3-(trifluoromethyl)-pyrazole-5-carboxamide]
fold loss of activity compared to 2m ([5]; CPE assay, R versus S chirality): 3 fold

EC50 [5, 10]: 3.1 µM
Structure (SMILES): Cn1nc(C(F)(F)F)cc1C(=O)Nc1ccc(S(=O)(=O)N2CCCCC2CCO)cc1 (stereo not drawn) [Compound 2m, N-(4-((2-(2-hydroxyethyl)piperidin-1-yl)sulfonyl)phenyl)-1-methyl-3-(trifluoromethyl)-pyrazole-5-carboxamide]

EC50 [5, 7]: 4.6 µM
Aqueous solubility (μg/ml) Test [3]: 55 µg/mL
Structure (SMILES): Cn1nc(C(F)(F)F)cc1C(=O)Nc1ccc(S(=O)(=O)N2CCCCC2CCN2CCOCC2)cc1 (stereo not drawn) [Compound 2n, 1-methyl-N-(4-((2-(2-morpholinoethyl)piperidin-1-yl)sulfonyl)phenyl)-3-(trifluoromethyl)-pyrazole-5-carboxamide]
CC50 [4]: > 75 µM

EC50 [5, 7]: 25 µM
Structure (SMILES): CCOC(=O)COCC1CCCCN1S(=O)(=O)c1ccc(NC(=O)c2cc(C(F)(F)F)nn2C)cc1 (stereo not drawn) [Compound 2p, ethyl 2-((1-((4-(1-methyl-3-(trifluoromethyl)-pyrazole-5-carboxamido)phenyl)sulfonyl)piperidin-2-yl)methoxy)acetate]

EC50 [5, 7]: 8.3 µM
Structure (SMILES): Cn1nc(C(F)(F)F)cc1C(=O)Nc1ccc(S(=O)(=O)N2CCCCC2COCCO)cc1 (stereo not drawn) [Compound 2q, N-(4-((2-((2-hydroxyethoxy)methyl)piperidin-1-yl)sulfonyl)phenyl)-1-methyl-3-(trifluoromethyl)-pyrazole-5-carboxamide]

EC50 [5, 11]: 2.8 µM
Aqueous solubility (μg/ml) Test [3]: 22 µg/mL
Structure (SMILES): Cn1nc(C(F)(F)F)cc1C(=O)Nc1ccc(S(=O)(=O)c2ccccc2)cc1 [Compound 3a, 1-methyl-N-(4-(phenylsulfonyl)phenyl)-3-(trifluoromethyl)-pyrazole-5-carboxamide]
EC50 [1, 6]: 0.02 µM
CC50 [4]: > 75 µM

EC50 [5, 11]: 3.1 µM
Structure (SMILES): COc1ccccc1S(=O)(=O)c1ccc(NC(=O)c2cc(C(F)(F)F)nn2C)cc1 [Compound 3b, N-(4-((2-methoxyphenyl)sulfonyl)phenyl)-1-methyl-3-(trifluoromethyl)-pyrazole-5-carboxamide]
CC50 [4]: > 75 µM

EC50 [5, 11]: 4.5 µM
Structure (SMILES): CC(=O)Oc1ccccc1S(=O)(=O)c1ccc(NC(=O)c2cc(C(F)(F)F)nn2C)cc1 [Compound 3d, 2-((4-(1-methyl-3-(trifluoromethyl)-pyrazole-5-carboxamido)phenyl)sulfonyl)phenyl acetate]

EC50 [5, 11]: 3.1 µM
EC50 [5, 8]: 3.1 µM
Aqueous solubility (μg/ml) Test [3]: 46 µg/mL
Structure (SMILES): Cn1nc(C(F)(F)F)cc1C(=O)Nc1ccc(S(=O)(=O)c2ccccc2CO)cc1 [Compound 3f, N-(4-((2-(hydroxymethyl)phenyl)sulfonyl)phenyl)-1-methyl-3-(trifluoromethyl)-pyrazole-5-carboxamide]
CC50 [4]: > 75 µM

More lines, now with the values behind:

Structure (SMILES): Cn1nc(C(F)(F)F)cc1C(=O)Nc1ccc(S(=O)(=O)N2CCCCC2)cc1 [AS-136a, 1-methyl-N-(4-(piperidin-1-ylsulfonyl)phenyl)-3-(trifluoromethyl)-pyrazole-5-carboxamide, reference compound]
EC50 [1, 6]: 0.014 µM
AUC (0-t) ([2]; oral 10 mg/kg): 132 ng·h/mL
AUC (0-∞) ([2]; oral 10 mg/kg): 513 ng·h/mL
Cmax ([2]; oral 10 mg/kg): 26.9 ng/mL
Tmax ([2]; oral 10 mg/kg): 2.5 h
T½ ([2]; oral 10 mg/kg): 12.7 h
AUC (0-t) ([2]; oral 50 mg/kg): 308 ng·h/mL
AUC (0-∞) ([2]; oral 50 mg/kg): 483 ng·h/mL
Cmax ([2]; oral 50 mg/kg): 72.2 ng/mL
Tmax ([2]; oral 50 mg/kg): 2.7 h
T½ ([2]; oral 50 mg/kg): 3.7 h
aqueous solubility ([3]; nephelometry): 15.0 µg/mL (≈ 36 µM)
CC50 [4]: > 75 µM

Structure (SMILES): COCOCC1CCCCN1S(=O)(=O)c1ccc(NC(=O)c2cc(C(F)(F)F)nn2C)cc1 (stereo not drawn) [Compound 1a, N-(4-((2-((methoxymethoxy)methyl)piperidin-1-yl)sulfonyl)phenyl)-1-methyl-3-(trifluoromethyl)-pyrazole-5-carboxamide]
fold more potent than the corresponding 3-piperidine ([5]; MOM ether analogs, CPE assay): 2 fold
EC50 [5, 7]: 1.5 µM

Structure (SMILES): COCOCC1CCCN(S(=O)(=O)c2ccc(NC(=O)c3cc(C(F)(F)F)nn3C)cc2)C1 (stereo not drawn) [Compound 1b, N-(4-((3-((methoxymethoxy)methyl)piperidin-1-yl)sulfonyl)phenyl)-1-methyl-3-(trifluoromethyl)-pyrazole-5-carboxamide]
EC50 [5, 7]: 3.8 µM

Structure (SMILES): COCOCC1CCN(S(=O)(=O)c2ccc(NC(=O)c3cc(C(F)(F)F)nn3C)cc2)CC1 [Compound 1c, N-(4-((4-((methoxymethoxy)methyl)piperidin-1-yl)sulfonyl)phenyl)-1-methyl-3-(trifluoromethyl)-pyrazole-5-carboxamide]
fold reduction of activity, 4-substituted derivative ([5]; MOM ether analogs, CPE assay, versus 2-piperidine 1a): ~10 fold
EC50 [5, 7]: 16 µM

Structure (SMILES): Cn1nc(C(F)(F)F)cc1C(=O)Nc1ccc(S(=O)(=O)N2CCCCC2CO)cc1 (stereo not drawn) [Compound 2a]
EC50 [1, 6]: 0.85 ± 0.05 µM
EC50 [5, 7]: 2.8 µM
EC50 [5, 8]: 2.3 µM
Aqueous solubility (μg/ml) Test [3]: 61 µg/mL
CC50 [4]: > 75 µM

Structure (SMILES): Cn1nc(C(F)(F)F)cc1C(=O)Nc1ccc(S(=O)(=O)N2CCCCC2CN2CCOCC2)cc1 (stereo not drawn) [Compound 2b, 1-methyl-N-(4-((2-(morpholinomethyl)piperidin-1-yl)sulfonyl)phenyl)-3-(trifluoromethyl)-pyrazole-5-carboxamide]
EC50 [5, 7]: 9.3 µM

Structure (SMILES): Cn1nc(C(F)(F)F)cc1C(=O)Nc1ccc(S(=O)(=O)N2CCCCC2CN=[N+]=[N-])cc1 (stereo not drawn) [Compound 2c]
EC50 [5, 7]: 1.5 µM

Structure (SMILES): Cn1nc(C(F)(F)F)cc1C(=O)Nc1ccc(S(=O)(=O)N2CCCCC2CN)cc1 (stereo not drawn) [Compound 2d, N-(4-((2-(aminomethyl)piperidin-1-yl)sulfonyl)phenyl)-1-methyl-3-(trifluoromethyl)-pyrazole-5-carboxamide]
EC50 [5, 9]: 55 µM

Structure (SMILES): CC(=O)NCC1CCCCN1S(=O)(=O)c1ccc(NC(=O)c2cc(C(F)(F)F)nn2C)cc1 (stereo not drawn) [Compound 2e, N-(4-((2-(acetamidomethyl)piperidin-1-yl)sulfonyl)phenyl)-1-methyl-3-(trifluoromethyl)-pyrazole-5-carboxamide]
EC50 [5, 7]: 14 µM

Structure (SMILES): CCOC(=O)/C=C/C1CCCCN1S(=O)(=O)c1ccc(NC(=O)c2cc(C(F)(F)F)nn2C)cc1 (stereo not drawn) [Compound 2g, ethyl 3-(1-((4-(1-methyl-3-(trifluoromethyl)-pyrazole-5-carboxamido)phenyl)sulfonyl)piperidin-2-yl)acrylate]
fold more active than the corresponding alcohols (2h and 2j) ([5]; CPE assay): 2 fold
EC50 [5, 9]: 3.7 µM

Structure (SMILES): Cn1nc(C(F)(F)F)cc1C(=O)Nc1ccc(S(=O)(=O)N2CCCCC2/C=C/CO)cc1 (stereo not drawn) [Compound 2h, N-(4-((2-(3-hydroxypropyl-1-ene)piperidin-1-yl)sulfonyl)phenyl)-1-methyl-3-(trifluoromethyl)-pyrazole-5-carboxamide]
EC50 [5, 7]: 6.8 µM

Structure (SMILES): CCOC(=O)CCC1CCCCN1S(=O)(=O)c1ccc(NC(=O)c2cc(C(F)(F)F)nn2C)cc1 (stereo not drawn) [Compound 2i, ethyl 3-(1-((4-(1-methyl-3-(trifluoromethyl)-pyrazole-5-carboxamido)phenyl)sulfonyl)piperidin-2-yl)propanoate]
fold more active than the corresponding alcohols (2h and 2j) ([5]; CPE assay): 2 fold
EC50 [5, 7]: 2.7 µM

Structure (SMILES): Cn1nc(C(F)(F)F)cc1C(=O)Nc1ccc(S(=O)(=O)N2CCCCC2CCCO)cc1 (stereo not drawn) [Compound 2j, N-(4-((2-(3-hydroxypropyl)piperidin-1-yl)sulfonyl)phenyl)-1-methyl-3-(trifluoromethyl)-pyrazole-5-carboxamide]
EC50 [5, 7]: 6.7 µM

Structure (SMILES): Cn1nc(C(F)(F)F)cc1C(=O)Nc1ccc(S(=O)(=O)N2CCCCC2CCO)cc1 (stereo not drawn) [Compound 2k, N-(4-((2-(2-hydroxyethyl)piperidin-1-yl)sulfonyl)phenyl)-1-methyl-3-(trifluoromethyl)-pyrazole-5-carboxamide]
EC50 ([1]; MV-Alaska, read-out: EC50 in the virus titer reduction assay): 0.06 µM
EC50 [1, 6]: 0.06 µM
AUC (0-t) ([2]; oral 10 mg/kg): 56.3 ng·h/mL
AUC (0-∞) ([2]; oral 10 mg/kg): 56.8 ng·h/mL
Cmax ([2]; oral 10 mg/kg): 19.8 ng/mL
Tmax ([2]; oral 10 mg/kg): 1 h
T½ ([2]; oral 10 mg/kg): 0.8 h
AUC (0-t) ([2]; oral 50 mg/kg): 754 ng·h/mL
AUC (0-∞) ([2]; oral 50 mg/kg): 973 ng·h/mL
Cmax ([2]; oral 50 mg/kg): 184 ng/mL
Tmax ([2]; oral 50 mg/kg): 0.5 h
T½ ([2]; oral 50 mg/kg): 2.7 h
dose proportionality ([2]; p.o., range of 10 mg/kg to 50 mg/kg): non-proportionality
EC50 [5, 8]: 2.7 µM
EC50 ([5]; Measles morbillivirus, MV-Alaska, read-out: EC50, CPE assay): 2.7 µM
Aqueous solubility (μg/ml) Test [3]: 62 µg/mL
CC50 [4]: > 75 µM
